The results in this text go back to patent US11613544B2, “Substituted imidazo[1,5-a]pyrazines for modulation of IRE1” (THE REGENTS OF THE UNIVERSITY OF CALIFORNIA, priority 2012, dated 2023).

Entries after “also recorded” stand apart in the source; their conditions may differ.

One test addresses Abl (Homo sapiens, UniProt P00519). Kind of test: Kinase panel counter-screen. The class given is biochemical. As to conditions: tested against 12 kinases of the panel.
Test [1] addresses T1, IRE1α* (Homo sapiens, UniProt O75460). The experiment in a line: IRE1α* DSS cross-linking to determine oligomer to monomer ratio. As to conditions: saturating compound (200 μM), DSS 250 μM.
Method: The reaction was quenched by addition of 50 mM Tris-HCl (pH 7.5). The samples were then boiled, resolved on SDS-PAGE, and immunoblotted for IRE1α with an anti-IRE1α antibody, (visualization and quantification with a LI-COR Odyssey scanner).
In a further test the target is Src (Homo sapiens, UniProt P12931). Kind of test: Kinase panel counter-screen. Type of test: biochemical. Conditions: tested against 12 kinases of the panel. For orientation: A counterscreen serves to expose hits that act by an unwanted route or on another target.
The next test concerns retinal photoreceptors. The experiment in a line: Intravitreal injection in rat models of retinal degeneration (tunicamycin; P23H rhodopsin). The class given is in vivo. The protocol: Based on known rat vitreous volumes, 2 μl was injected intravitreally into each eye. Tm ([…] final concentration) plus/minus KIRA6 (10 μM final concentration) was injected into SD rats at P21 with an equivalent amount of DMSO as a vehicle control. Retinas were collected at 48 and 72 hrs after injections in Trizol (Invitrogen) for qPCR analysis. Eyes were examined by optical coherence tomography (OCT) 7 days post injection and subsequently collected for morphological analysis. […]
Mice were anaesthetized with 1.5-3% isoflurane, eyes were dilated with 2.5% phenylephrine hydrochloride and 1% tropicamide, and corneas were kept moist with regular application of 2.5% methylcellulose. Eyes were examined using a Micron III retinal imaging system (Phoenix Research Labs). Spectral domain OCT images were acquired with a Micron Image Guided OCT System (Phoenix Research Labs) by averaging 10 to 50 scans.
Outer nuclear layers (ONL) were quantified as previously described (Lewin, A. S. et al., Nature medicine 4, 967-971 (1998)). Briefly, rats were euthanized by CO2 inhalation and their eyes were immediately enucleated and immersed in 2% paraformaldehyde and 2.5% glutaraldehyde in phosphate buffered saline. […] ONL thickness was measured at 54 locations around the retina using Bioquant image analysis (Bioquant; R&M Biometrics).

Test [2] deals with mouse embryonic fibroblasts (MEFs). The experiment in a line: Cytoprotection in mouse embryonic fibroblasts. The class given is cell-based.
The target of test [3] is T1, IRE1α*. Kind of test: IRE1α* autophosphorylation kinase assay ([γ-32P]ATP, autoradiography). As to conditions: in vitro.
Method: Inhibitors (initial concentration=80 μM, 2-fold serial dilutions) were incubated with IRE1α in cleavage buffer (20 mM Hepes at pH 7.5, 0.05% Triton X100, 50 mM KOAC, 1 mM Mg(OAC)2, 1 mM DTT) for 20 min, followed by incubation with 10 μCi [γ-^32P]ATP (3000 Ci/mmol, Perkin Elmer) at RT for 30 min. Samples were then separated by SDS-PAGE, and autoradiographed. The auto-phosphorylation level were quantified by setting the band intensity of IRE1α* without compound treatment as 1 and the background as 0.
Another test concerns INS-1 cells. Kind of test: Terminal UPR endpoints and apoptosis in cells under ER stress. The class given is cell-based, rat. From the text: Using rat insulinoma (INS-1) cells that have a well-developed ER and secrete insulin, the duration and magnitude of ER stress that triggers apoptosis were quantified. Two variables-concentration of ER stress inducer (e.g. Thapsigargin-Tg) and time of exposure to the agent—are directly linked to the percentage of cells entering apoptosis (FIG. 28, A and B). Such regimes can be defined for other ER stress inducers such as the glycosylation inhibitor, tunicamycin (Tm) (FIG. 28,C). Increasing ER stress causes progressive increases in endogenous IRE1α phosphorylation, increases in XBP1 mRNA splicing (FIG. 28, E), depletion through endonucleolytic decay of the ER-localized mRNA, Ins1, which encodes proinsulin (FIG. 28, F), and induction of the pro-apoptotic transcription factor, CHOP (FIG. 28, G).
KIRAs break high-order oligomerization of IRE1α kinase domains, attenuate RNAse activity, and reduce entry of cells into the Terminal UPR.
A model of KIRA6-mediated cytoprotection is shown (FIG. 30, J); it posits that the type II kinase inhibitor, KIRA6, reduces kinase/RNAse homo-oligomerization on the cytosolic face of IRE1α, which consequently reduces RNase hyperactivity under ER stress, preventing pro-apoptotic ER-localized mRNA decay and granting cells extended reprieve from programmed cell death.

The next test deals with T2, IRE1α* (WT) (Homo sapiens, UniProt O75460).
T2 construct: 6-His-tag (N); made in house; host or cells: SF9 insect cells (Bac-to-Bac baculovirus)
Kind of test: In vitro cleavage of pre-miR-17 by IRE1α*. Type of test: biochemical. From the text:
FIG. 31. […] Sequence legend (FIG. 31B): SEQ ID NOs:11-15 (in order top to bottom); (FIG. 31C): SEQ ID NO:16.
Described herein is the characterization of four select miRs that decay in vivo upon IRE1α hyperactivation. These are miR-17, miR-34a, miR-96, and miR-125b. WT-IRE1α directly cleaved pre-miR-17 in vitro at sites distinct from those cleaved by DICER, as mapped by primer extension. The scission sites of pre-miR-17 are identical to those of XBP1 mRNA—(G/C)—and diverge at the flanking regions. Thus, by reducing levels of pre-miRs, IRE1α antagonizes DICER action to reduce cellular levels of the corresponding mature miRs. Intriguingly, IRE1α* (I642G), which can be activated by 1NM-PP1 to cleave XBP1 mRNA in vitro, can also cleave pre-miR-17 under 1NM-PP1. An RNAse mutant, IRE1α* (N906A), is compromised for cleavage of pre-miR-17 (FIG. 31, A-C). […] As IRE1α homo-oligomerizes in the ER membrane in proportion to the concentration of unfolded proteins in the ER lumen, it progressively trans-autophosphorylates. Furthermore, salt bridges between phospho-amino acid groups and other residues reinforce higher-order homo-oligomerization of kinase/RNAse domains, as was shown using yeast IRE1. Thus, as IRE1α protein clusters into higher-order oligomers, it acquires increasing activity towards its RNA substrates. […]

Test [4] deals with T1, IRE1α*. Conditions: in vitro.
The subject of test [5] is pancreatic islets from C57BL/6 mice. The experiment in a line: Pancreatic islets treated with ER stress inducer (Tm). Type of test: cell-based, mouse. The protocol:
FIG. 30. KIRA6 inhibits IRE1α autophosphorylation, breaks oligomers, reduces RNase activity, and protects cells from entry into apoptosis. (A) Structure of KIRA6. (B) RNase activities of IRE1α* under varying [KIRA6]; half-maximum effective concentration (EC50) values were determined by fitting normalized fluorescence intensities (mean±s.d., n=3). (C) Inhibition of IRE1α* kinase activity in vitro by KIRA6; IC50 values were determined by fitting percent phosphorylation. […] (E) Immunoblots of IRE1α* (WT) incubated with DMSO or KIRA6 (200 μM) followed by treatment with the crosslinker DSS (250 μM); quantification is on the right. (F) Agarose gel of XBP1 cDNA amplicons from INS-1 cells pre-treated with indicated concentrations of KIRA6 for 1 h, followed by 0.5 μg/ml Tm for 8 h. […] (H) KIRAs reduce entry of INS1-1 cells into apoptosis. (I) Immunofluorescence of islets from 10 wk old C57BL/6 mice treated with 0.5 μg/mL Tm plus/minus 0.5 μM KIRA6 for 16 hr. Co-stained for DAPI, insulin, and TUNEL; Quantification of TUNEL positive β-cells (white arrows) normalized to DAPI-positive cells is shown. […] (K) Model of how KIRA6 prevents the terminal UPR by inhibiting IRE1α. […]

T1 sequence (O75460 with tags, fused parts or gaps): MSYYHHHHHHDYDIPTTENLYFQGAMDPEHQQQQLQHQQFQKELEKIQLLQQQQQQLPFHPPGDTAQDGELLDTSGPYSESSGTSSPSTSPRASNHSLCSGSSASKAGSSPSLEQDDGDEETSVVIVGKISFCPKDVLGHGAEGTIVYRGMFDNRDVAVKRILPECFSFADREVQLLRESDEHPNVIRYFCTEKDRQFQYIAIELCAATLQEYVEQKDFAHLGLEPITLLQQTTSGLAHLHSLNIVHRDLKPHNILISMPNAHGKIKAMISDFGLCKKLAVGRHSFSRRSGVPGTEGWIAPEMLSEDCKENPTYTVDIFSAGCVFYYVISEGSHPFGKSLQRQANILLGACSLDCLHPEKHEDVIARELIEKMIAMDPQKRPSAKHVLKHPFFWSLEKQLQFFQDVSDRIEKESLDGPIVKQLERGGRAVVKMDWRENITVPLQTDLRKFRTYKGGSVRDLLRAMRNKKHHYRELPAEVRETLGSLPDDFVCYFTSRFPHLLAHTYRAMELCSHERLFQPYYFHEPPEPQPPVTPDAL
T2 sequence (O75460 with tags, fused parts or gaps): as above
Src, sequence (P12931 whole entry, species assumed): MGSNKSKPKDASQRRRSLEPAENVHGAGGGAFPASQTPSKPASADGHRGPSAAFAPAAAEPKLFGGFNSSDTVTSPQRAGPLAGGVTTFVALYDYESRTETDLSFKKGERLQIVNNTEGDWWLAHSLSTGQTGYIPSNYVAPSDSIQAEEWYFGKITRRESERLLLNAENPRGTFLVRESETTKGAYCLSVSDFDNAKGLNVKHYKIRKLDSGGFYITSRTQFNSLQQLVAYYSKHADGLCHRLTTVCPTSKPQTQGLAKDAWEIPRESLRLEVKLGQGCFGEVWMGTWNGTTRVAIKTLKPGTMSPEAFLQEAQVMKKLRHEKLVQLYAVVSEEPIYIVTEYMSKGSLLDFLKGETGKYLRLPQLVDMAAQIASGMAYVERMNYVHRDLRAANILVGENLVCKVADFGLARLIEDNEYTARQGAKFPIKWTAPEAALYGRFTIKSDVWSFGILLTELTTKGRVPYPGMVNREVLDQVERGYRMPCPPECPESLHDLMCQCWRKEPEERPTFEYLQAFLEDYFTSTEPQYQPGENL
Abl, sequence (P00519 whole entry, species assumed): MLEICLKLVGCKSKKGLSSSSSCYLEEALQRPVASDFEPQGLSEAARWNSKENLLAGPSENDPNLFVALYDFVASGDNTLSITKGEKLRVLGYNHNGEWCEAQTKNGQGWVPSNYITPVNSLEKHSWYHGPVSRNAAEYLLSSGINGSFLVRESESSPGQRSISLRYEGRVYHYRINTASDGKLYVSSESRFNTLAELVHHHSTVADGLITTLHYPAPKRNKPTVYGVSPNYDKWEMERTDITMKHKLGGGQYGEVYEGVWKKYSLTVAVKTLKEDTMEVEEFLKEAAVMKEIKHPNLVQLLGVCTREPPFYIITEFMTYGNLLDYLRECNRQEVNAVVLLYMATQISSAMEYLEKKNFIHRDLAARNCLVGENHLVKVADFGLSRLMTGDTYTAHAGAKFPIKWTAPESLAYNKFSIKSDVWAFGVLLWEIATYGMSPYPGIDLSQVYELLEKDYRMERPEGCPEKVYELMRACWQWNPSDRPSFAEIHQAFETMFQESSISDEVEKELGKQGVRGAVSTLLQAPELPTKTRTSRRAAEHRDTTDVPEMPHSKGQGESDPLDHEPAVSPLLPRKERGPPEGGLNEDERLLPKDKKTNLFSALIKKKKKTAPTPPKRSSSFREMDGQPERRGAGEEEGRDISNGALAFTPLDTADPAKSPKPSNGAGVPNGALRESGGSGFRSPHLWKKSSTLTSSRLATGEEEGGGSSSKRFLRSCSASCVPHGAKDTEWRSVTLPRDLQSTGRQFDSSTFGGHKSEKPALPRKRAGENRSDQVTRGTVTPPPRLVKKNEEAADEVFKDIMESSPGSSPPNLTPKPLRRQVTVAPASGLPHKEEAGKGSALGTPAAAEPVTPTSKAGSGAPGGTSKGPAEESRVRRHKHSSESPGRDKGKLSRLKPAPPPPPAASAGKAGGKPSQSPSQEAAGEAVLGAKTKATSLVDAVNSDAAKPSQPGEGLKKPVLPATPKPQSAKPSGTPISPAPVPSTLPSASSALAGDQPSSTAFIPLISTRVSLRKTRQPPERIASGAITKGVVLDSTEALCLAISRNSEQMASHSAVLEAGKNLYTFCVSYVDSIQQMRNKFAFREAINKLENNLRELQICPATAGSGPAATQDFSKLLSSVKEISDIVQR

`CC(C)(C)c1nc(-c2ccc(NC(=O)Nc3cccc(C(F)(F)F)c3)c3ccccc23)c2c(N)nccn12` [KIRA6, 1-(4-(8-amino-3-tert-butylimidazo[1,5-a]pyrazin-1-yl)naphthalen-1-yl)-3-(3-(trifluoromethyl)phenyl)urea]: the off-target kinase inhibition entry at Abl and on Src was “off-target inhibition observed” each time. Besides, the “IRE1α* oligomer/monomer ratio (oligomerization state)” value at IRE1α* [1] is given as “stabilizes the monomeric state; also recorded: reduces concentration-dependent oligomerization”. Further, the “endogenous IRE1α-mediated XBP1 mRNA splicing” value in the test on endogenous IRE1α (INS-1, provoked by Tm) is “inhibits endogenous IRE1α-mediated XBP1 mRNA splicing”. Besides, the “endogenous IRE1α auto-phosphorylation” value in the test with endogenous IRE1α (in vivo (cells), FIG. 30D) is on record as “inhibits endogenous IRE1α auto-phosphorylation in a dose-dependent manner”. The “outer nuclear layer (ONL) thickness vs DMSO” value in the test with retinal photoreceptors (P23H-1 rats at P30, intravitreal 10 μM) is “higher thickness”. Moreover, the “photoreceptor loss / viability and function” value with retinal photoreceptors (intravitreal, rat models of retinal degeneration caused by ER stress) is “protects viability and preserves function of retinal photoreceptors; also recorded: prevents photoreceptor loss”. For the same compound, the cytoprotective effects result in [2] (Ire1α−/− MEFs) was “absent”; in test [2] (WT and Xbp1−/− MEFs) it was “still demonstrable”. For the same compound, the “inhibition of IRE1α* autophosphorylation” value on IRE1α* [3] is recorded as “dose-dependently reduces kinase autophosphorylation”. Also, the “ER-localized endonucleolytic decay of Ins1 mRNA” value in the test on INS-1 cells (ER stress) was “inhibits ER-localized endonucleolytic decay of Ins1 mRNA at lower doses of the drug than needed to inhibit XBP1 mRNA splicing”. For the same compound, in the test on INS-1 cells (FIG. 31F), the “caspase 2 accumulation and cleavage” value is “reduces caspase 2 accumulation and cleavage”. In addition, the “mature miR-17 levels” value in the test with INS-1 cells (in vivo (cells), FIG. 31E) is on record as “rescues mature miR-17 levels”. Moreover, the “terminal UPR endpoints / entry into apoptosis” value with INS-1 cells (pre-treatment before ER stress inducers) is “all these terminal UPR endpoints are curtailed”. Also, the “cleavage of pre-miR-17 by IRE1α*” value at IRE1α* (WT) is on record as “dose-dependently inhibits IRE1α* (WT) cleavage of pre-miR-17; also recorded: prevents cleavage of pre-miR-17 by IRE1α* in vitro”. At IRE1α* [4], the “modulation of IRE1α* RNase activity (XBP1 RNA cleavage)” value was “inhibits IRE1α* RNase and kinase activities with similar IC50s; also recorded: dose-dependently reduces kinase autophosphorylation and XBP1 splicing activity”. Besides, the TXNIP protein accumulation result in test [5] (C57BL/6 islets exposed to ER stress inducers) is “prevents TXNIP protein accumulation”. Also, in test [5] (islets treated with Tm), the “cytoprotection of pancreatic islets” value is recorded as “cytoprotective effects”.
